Like-named read-outs stand apart in the source and are kept apart here.

The conditions of the series: amide bond.
Setting [1] is: the molecule shown is the open-chain precursor, 23-membered ring, as Reference Example 8 (not in excerpt), 3 steps.

Substance Acp-Asn-Leu-Ser(Bzl)-Thr(Bzl)-Asp-OEt returned a ring closure, isolated yield (23-membered ring, ONp active ester (from TFA-ONp)/pyridine, pyridine/DMF, 50.0 °C, 3 steps) of 26.6%.

As for “H-Abu-Asn-Leu-Ser(Bzl)-Thr(Bzl)-Cec(ONp)-OMe?”, the ring closure, isolated yield (the molecule shown is the open-chain precursor, as Reference Example 8 (not in excerpt), 3 steps) is 47.1%.

Under setting [1], “H-Asn-Leu-Ser(Bzl)-Thr(Bzl)-Lys(COCH2CH2CO-ONp)-OMe?” registered a ring closure, isolated yield of 34.9%. Consider “H-Ser(Bzl)-Asn-Leu-Ser(Bzl)-Thr(Bzl)-Cpc(ONp)-OMe?”, for which the ring closure, isolated yield under setting [1] was determined as 55.9%. With “H-Ser(Bzl)-Asn-Leu-Ser(Bzl)-Thr(Bzl)-Tyr(CH2CO-ONp)-OMe?”, the ring closure, isolated yield (the molecule shown is the open-chain precursor, 25-membered ring, as Reference Example 8, then Reference Example 9 (not in excerpt), 4 steps) is 43.8%.

The record behind these values is patent publication US5204326.
